In patent publication US9326986B2, “Quinazolinone, quinolone and related analogs as sirtuin modulators” (GLAXOSMITHKLINE LLC, priority 2008, dated 2016):

Molecular target: T1, SIRT1 (Homo sapiens, UniProt Q96EB6)
T1 sequence (Q96EB6 1-747): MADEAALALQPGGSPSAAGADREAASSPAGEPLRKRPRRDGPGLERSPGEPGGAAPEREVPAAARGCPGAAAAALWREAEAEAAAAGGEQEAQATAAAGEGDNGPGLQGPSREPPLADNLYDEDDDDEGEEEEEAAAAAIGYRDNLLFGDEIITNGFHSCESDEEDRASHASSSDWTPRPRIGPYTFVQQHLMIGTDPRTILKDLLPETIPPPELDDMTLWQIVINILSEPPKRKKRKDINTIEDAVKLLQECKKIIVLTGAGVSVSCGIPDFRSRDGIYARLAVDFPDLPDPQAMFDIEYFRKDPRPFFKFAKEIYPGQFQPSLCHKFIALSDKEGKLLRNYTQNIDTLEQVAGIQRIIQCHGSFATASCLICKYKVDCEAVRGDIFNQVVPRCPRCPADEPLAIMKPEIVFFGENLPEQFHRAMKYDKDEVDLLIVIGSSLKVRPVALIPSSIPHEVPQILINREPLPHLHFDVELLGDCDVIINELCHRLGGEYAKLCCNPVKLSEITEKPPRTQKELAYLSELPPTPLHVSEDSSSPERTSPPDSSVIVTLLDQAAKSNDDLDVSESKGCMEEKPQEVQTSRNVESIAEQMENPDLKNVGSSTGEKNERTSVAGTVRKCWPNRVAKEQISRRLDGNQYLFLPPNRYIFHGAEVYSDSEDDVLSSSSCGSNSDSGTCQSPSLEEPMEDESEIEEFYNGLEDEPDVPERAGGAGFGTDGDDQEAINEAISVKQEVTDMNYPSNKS
Test: Mass spectrometry based assay to identify modulators of SIRT1 activity (deacetylation of p53-based acetylated peptide)
Format: biochemical
Settings: 10 nM SIRT1, 0.5 μM peptide substrate, 120 μM βNAD+, 25 minutes at 25° C.; for EC1.5 μM: SIRT1 activation
Excerpt: A mass spectrometry based assay was used to identify modulators of SIRT1 activity. The mass spectrometry based assay utilizes a peptide having 20 amino acid residues as follows: Ac-EE-K(biotin)-GQSTSSHSK(Ac)NleSTEG-K(5TMR)-EE-NH2 (SEQ ID NO: 1) wherein K(Ac) is an acetylated lysine residue and Nle is a norleucine. The peptide is labeled with the fluorophore 5TMR (excitation 540 nm/emission 580 nm) at the C-terminus. The sequence of the peptide substrate is based on p53 with several modifications. In addition, the methionine residue naturally present in the sequence was replaced with the norleucine because the methionine may be susceptible to oxidation during synthesis and purification.
The mass spectrometry assay is conducted as follows: 0.5 μM peptide substrate and 120 μM βNAD^+ is incubated with 10 nM SIRT1 for 25 minutes at 25° C. in a reaction buffer (50 mM Tris-acetate pH 8, 137 mM NaCl, 2.7 mM KCl, 1 mM MgCl2, 5 mM DTT, 0.05% BSA). Test compounds may be added to the reaction as described above. […] After the 25 minute incubation with SIRT1, 10 μL of 10% formic acid is added to stop the reaction. Reactions are sealed and frozen for later mass spec analysis. Determination of the mass of the substrate peptide allows for precise determination of the degree of acetylation (i.e. starting material) as compared to deacetylated peptide (product).
A control for inhibition of sirtuin activity is conducted by adding 1 μL of 500 mM nicotinamide as a negative control at the start of the reaction (e.g., permits determination of maximum sirtuin inhibition). A control for activation of sirtuin activity is conducted using 10 nM of sirtuin protein, with 1 μL of DMSO in place of compound, to determine the amount of deacetylation of the substrate at a given timepoint within the linear range of the assay. This timepoint is the same as that used for test compounds and, within the linear range, the endpoint represents a change in velocity.
For the above assay, SIRT1 protein was expressed and purified as follows. […] The protein was expressed by induction with 1 mM IPTG as an N-terminal His-tag fusion protein at 18° C. overnight and harvested at 30,000×g. Cells were lysed with lysozyme in lysis buffer (50 mM Tris-HCl, 2 mM Tris[2-carboxyethyl]phosphine (TCEP), 10 μM ZnCl2, 200 mM NaCl) and further treated with sonication for 10 min for complete lysis. The protein was purified over a Ni-NTA column (Amersham) and fractions containing pure protein were pooled, concentrated and run over a sizing column (Sephadex S200 26/60 global). The peak containing soluble protein was collected and run on an Ion-exchange column (MonoQ). Gradient elution (200 mM-500 mM NaCl) yielded pure protein. This protein was concentrated and dialyzed against dialysis buffer (20 mM Tris-HCl, 2 mM TCEP) overnight. The protein was aliquoted and frozen at −80° C. until further use.
Sirtuin modulating compounds that activated SIRT1 were identified using the assay described above and are shown below in Tables 1 and 2. The EC1.5 values for the activating compounds are represented by A (EC1.5<1.0 μM), B (EC1.5 1-25 μM), C (EC1.5>25 μM). The percent maximum fold activation is represented by A (Fold activation>200%) or B (Fold Activation<200%).

| SMILES | % Fold Act. (percent maximum fold activation) | EC1.5 μM |
| --- | --- | --- |
| Cn1c(-c2cccc(C(F)(F)F)c2)nc2c(NC(=O)c3cncc(N4CCOCC4)n3)cccc2c1=O [Compound 336] | A (Fold activation>200%) | A (EC1.5<1.0 μM) |
| Cc1cc(C(=O)Nc2cccc3c(=O)cc(-c4cccc(C(F)(F)F)c4)[nH]c23)n(C)n1 [Compound 410] | A (Fold activation>200%) | A (EC1.5<1.0 μM) |
| Cn1ccnc1-c1nc2c(NC(=O)c3cnccn3)cccc2c(=O)n1C [Compound 289] | B (Fold Activation<200%) | C (EC1.5>25 μM) |
| O=C(Nc1nccs1)c1cccc2c(=O)cc(-c3cccc(C(F)(F)F)c3)[nH]c12 [Compound 404] | A (Fold activation>200%) | A (EC1.5<1.0 μM) |
| Cn1c(-c2ccccc2OC(F)(F)F)nc2c(NC(=O)c3cnccn3)cccc2c1=O [Compound 274] | A (Fold activation>200%) | A (EC1.5<1.0 μM) |
| Cn1c(-c2cccc(C(F)(F)F)c2)nc2c(C(=O)Nc3cccc(N4CCCC4)n3)cccc2c1=O [Compound 350, 3-methyl-4-oxo-N-(6-(pyrrolidin-1-yl)pyridin-2-yl)-2-(3-(trifluoromethyl)phenyl)-3,4-dihydroquinazoline-8-carboxamide] | B (Fold Activation<200%) | B (EC1.5 1-25 μM) |
| Cn1c(-c2ccncn2)nc2c(NC(=O)c3cnccn3)cccc2c1=O [Compound 280] | B (Fold Activation<200%) | C (EC1.5>25 μM) |
| Cn1c(-c2cccc(C(F)(F)F)c2)nc2c(NC(=O)c3cccc(OCC(O)CO)n3)cccc2c1=O (stereo not shown) [Compound 335] | A (Fold activation>200%) | A (EC1.5<1.0 μM) |
| Cn1c(-c2cccc(C(F)(F)F)c2)nc2c(NS(=O)(=O)c3cccnc3)cccc2c1=O [Compound 361] | B (Fold Activation<200%) | C (EC1.5>25 μM) |
| Cn1ccc(-c2nc3c(C(=O)Nc4ccccn4)cccc3c(=O)n2C)n1 [Compound 228] | B (Fold Activation<200%) | B (EC1.5 1-25 μM) |
| Cn1c(-c2cccnc2)nc2c(C(=O)Nc3ccccn3)cccc2c1=O [Compound 256] | B (Fold Activation<200%) | C (EC1.5>25 μM) |
| Cc1ncoc1C(=O)Nc1cccc2c(=O)n(C)c(-c3cccc(C(F)(F)F)c3)nc12 [Compound 230] | A (Fold activation>200%) | A (EC1.5<1.0 μM) |
| Cn1c(-c2cnccn2)nc2c(C(=O)Nc3ccccn3)cccc2c1=O [Compound 258] | B (Fold Activation<200%) | C (EC1.5>25 μM) |
| CCc1nnc(NC(=O)c2cccc3c(=O)cc(-c4cccc(C(F)(F)F)c4)[nH]c23)s1 [Compound 400] | A (Fold activation>200%) | A (EC1.5<1.0 μM) |
| O=C(Nc1cccnc1)c1cccc2c(=O)cc(-c3cccc(OC(F)F)c3)[nH]c12 [Compound 443] | A (Fold activation>200%) | A (EC1.5<1.0 μM) |
| Cc1ncsc1-c1nc2c(NC(=O)c3cnccn3)cccc2c(=O)n1C [Compound 284] | A (Fold activation>200%) | B (EC1.5 1-25 μM) |

| SMILES | % Fold Act. (percent maximum fold activation) | EC1.5 μM |
| --- | --- | --- |
| Cc1cc(NC(=O)c2cccc3c(=O)n(C)c(-c4cccc(C(F)(F)F)c4)nc23)n(C)n1 [Compound 295] | B (Fold Activation<200%) | C (EC1.5>25 μM) |
| Cn1cnc(NC(=O)c2cccc3c(=O)n(C)c(-c4cccc(C(F)(F)F)c4)nc23)n1 [Compound 305] | A (Fold activation>200%) | B (EC1.5 1-25 μM) |
| O=C(Nc1ccccn1)c1cccc2c(=O)[nH]c(-c3ccccc3OC(F)F)nc12 [Compound 328] | A (Fold activation>200%) | B (EC1.5 1-25 μM) |
| Cn1c(-c2cccc(C(F)(F)F)c2)nc2c(C(=O)Nc3nc(CN4CCOCC4)cs3)cccc2c1=O [Compound 309] | A (Fold activation>200%) | A (EC1.5<1.0 μM) |
| Cn1cncc1C(=O)Nc1cccc2c(=O)n(C)c(-c3cccc(C(F)(F)F)c3)nc12 [Compound 236] | A (Fold activation>200%) | B (EC1.5 1-25 μM) |
| O=C(Nc1cccc2c(=O)cc(-c3ccccc3C(F)(F)F)[nH]c12)c1cscn1 [Compound 444] | A (Fold activation>200%) | A (EC1.5<1.0 μM) |
| Cn1c(-c2cccc(C(F)(F)F)c2)nc2c(NC(=O)c3ccccn3)cccc2c1=O [Compound 239, N-(3-methyl-4-oxo-2-(3-(trifluoromethyl)phenyl)-3,4-dihydroquinazolin-8-yl)picolinamide] | A (Fold activation>200%) | A (EC1.5<1.0 μM) |
| Cn1cnc(-c2nc3c(NC(=O)c4cnccn4)cccc3c(=O)n2C)c1 [Compound 288] | B (Fold Activation<200%) | C (EC1.5>25 μM) |
| Cn1c(-c2ccccc2Cl)nc2c(C(=O)Nc3ccccn3)cccc2c1=O [Compound 242] | B (Fold Activation<200%) | B (EC1.5 1-25 μM) |
| Cn1c(-c2cccnc2)nc2c(NC(=O)c3cnccn3)cccc2c1=O [Compound 278] | B (Fold Activation<200%) | B (EC1.5 1-25 μM) |
| Cn1c(-c2ncccn2)nc2c(C(=O)Nc3ccccn3)cccc2c1=O [Compound 259] | B (Fold Activation<200%) | C (EC1.5>25 μM) |
| Cn1c(-c2cccc(C(F)(F)F)c2)nc2c(C(=O)Nc3nncs3)cccc2c1=O [Compound 299] | A (Fold activation>200%) | B (EC1.5 1-25 μM) |
| Cn1c(-c2ccncc2)nc2c(C(=O)Nc3ccccn3)cccc2c1=O [Compound 223] | B (Fold Activation<200%) | C (EC1.5>25 μM) |
| O=C(Nc1cccnc1)c1cccc2c(=O)cc(-c3ccccc3C(F)F)[nH]c12 [Compound 438] | A (Fold activation>200%) | B (EC1.5 1-25 μM) |
| O=C(Nc1cnccn1)c1cccc2c(=O)cc(-c3cccc(C(F)(F)F)c3)[nH]c12 [Compound 403] | A (Fold activation>200%) | A (EC1.5<1.0 μM) |
| Cn1c(-c2cccc(C(F)(F)F)c2)nc2c(NC(=O)c3cnccn3)cccc2c1=O [Compound 202] | A (Fold activation>200%) | A (EC1.5<1.0 μM) |
